What all share (assay type): biochemical
Assay [1] relates to 10DM24-C44T mutant deoxyribozyme. Kind of assay: Ligation of NTP substrate with 10DM24 variant in which the terminal P4 nucleotide is changed C→T, cofactor RΔ. Particulars: for krel = kobs,NTP*/kobs,NTP: relative to ATP. The method, then:
(§1) General Description of Kinetic Assays. All kinetic assays with the 10DM24 deoxyribozyme and its variants were performed according to established methods (Flynn-Charlebois, et al. (2003) supra; Wang and Silverman (2003) supra). The 5′-^32P-labeled RNA substrate (L for “left-hand substrate”) that provides the branch-site adenosine was the limiting reagent relative to 10DM24 (E) and the truncated cofactor RNA (RΔ; R originally derived from “right-hand substrate”). The ratio L:E:RΔ was 1:10:30, with 0.25 μM 10DM24. The cofactor RΔ was 5′-phosphorylated unless otherwise stated. The RNA substrate L, deoxyribozyme 10DM24 and cofactor RΔ were annealed in 5 mM HEPES, pH 7.5, 15 mM NaCl, 0.1 mM EDTA by heating at 95° C. for 3 minutes and cooling on ice for 5 minutes. The ligation reactions were performed with the appropriate concentration of NTP substrate (0.05-50 mM) at a final buffer concentration of 100 mM CHES, pH 9.0, 150 mM NaCl, 2 mM KCl, and 40-400 mM MgCl2 at 37° C. for up to 5 hours. The combination of 1 mM NTP and 40 mM MgCl2 was defined as “standard incubation conditions”; 10 mM NTP and 150 mM MgCl2 was defined as “enhanced incubation conditions”. At appropriate timepoints, aliquots were removed from the sample, quenched into stop solution (80% formamide, 1× TB [89 mM each Tris and boric acid, pH 8.3], and 50 mM EDTA containing 0.025% bromophenol blue and xylene cyanol) and stored at −20° C. prior to analysis. Samples were separated by 20% denaturing PAGE at 30 W for 115 minutes and imaged with a PHOSPHORIMAGER. The resulting data were fit to the equation yield=Y·(1−e^−kt), where k=kobs and Y=final yield.
Focus was then placed on the purine NTPs (GTP, ATP) and their derivatives. When 1 mM ATP was provided as a small molecule substrate in place of GTP using the original 10DM24 sequence and RΔ, no reaction was observed (<1% in 5 hours). […] Furthermore, the kobs increased sixteen-fold to 0.013 min^−1 under enhanced conditions with 10 mM ATP (82% yield in 3 hours).

Assay [2] has as its system 10DM24 deoxyribozyme. The experiment in a line: 10DM24-catalyzed ligation of small-molecule NTP substrate to branch-site adenosine of RNA substrate L with cofactor RΔ. Particulars: for kobs,enh/kobs,std: GTP series; for krel = kobs,NTP*/kobs,NTP: relative to GTP. The method, then: as §1
Use of Free NTPs as Substrates. It was determined whether 10DM24 could catalyze ligation with free GTP as a substrate (see FIG. 1B), thereby transferring guanosine 5′-monophosphate (GMP) to the branch-site adenosine 2′-hydroxyl group. When RΔ, an oligoribonucleotide cofactor that corresponds to all of the remaining nucleotides of R, was added to 10DM24 along with GTP, ligation was efficient (FIG. 8; 94% yield in 5 hours and kobs 0.034 min^−1 under the standard incubation conditions of 1 mM GTP and 40 mM MgCl2 at pH 9.0, 37° C.). The RNA product with the single added guanosine at the branch-site adenosine was PAGE-purified and the identity confirmed by partial alkaline hydrolysis (50 mM NaHCO3 at 95° C. for 5 minutes) and MALDI mass spectrometry (m/z calcd. 5433, found 5437±5).

The test system of assay [3] is 10DM24 deoxyribozyme. The experiment in a line: Ligation of GTP or pppGpG in presence of shorter cofactor RΔΔ. Particulars: RΔΔ cofactor, 20 mM NTP and 150 mM MgCl2, pH 9.0, 37° C. The method, then: It was subsequently shown that a binding site for an NTP cofactor can be located adjacent to the substrate binding site. This was achieved by removing an additional nucleotide from the RΔ cofactor, forming the shorter RΔΔ cofactor which required two added nucleotides to reconstitute the complete P4 region (FIG. 10). The 10DM24-catalyzed ligation reaction of GTP in the presence of the two-nucleotide short cofactor RΔΔ was performed with the 5′-^32P-labeled RNA substrate (L) that provides the branch-site adenosine as the limiting reagent. For kinetic assays, the ratio of L:E:RΔΔ was 1:10:30 with 0.25 μM deoxyribozyme (E). For isolation of the reaction products, the ratio L:E:RΔΔ was 1:2:3 with 1.5 μM deoxyribozyme. The reaction was performed under the enhanced incubation conditions with 20 mM GTP and 150 mM MgCl2 in 100 mM CHES, pH 9.0, 150 mM NaCl, and 2 mM KCl at 37° C. for up to 7 hours. […] Both products were isolated and shown by partial alkaline hydrolysis to be branched with the connectivities A-G and A-GG (where A is the branch-site adenosine).
It was contemplated that the new A-GG product was formed by initial templated but otherwise uncatalyzed synthesis of a GG dinucleotide (i.e., pppGpG) from two GTP molecules, followed by 10DM24-catalyzed branch formation using this dinucleotide. […] The reaction was performed under the enhanced incubation conditions of 20 mM GTP and 150 mM MgCl2. […] The pppGpG dinucleotide was synthesized independently using T7 RNA polymerase (Huang, et al. (1998) supra) and led solely to the A-GG product. Although the pppGpG substrate had Kd,app of >1 mM with RΔΔ, similar to Kd,app for GTP with RΔ, the ligation reaction with pppGpG and RΔΔ had kobs six-fold higher than for the analogous reaction with GTP and RΔ (Table 8).
Similar experiments were performed using the mutant 10DM24 deoxyribozyme that has CTTT rather than CCTT in the P4 region (FIG. 11). For the DNA-catalyzed ligation of pppGpG, the 5′-^32P-labeled RNA with the branch-site adenosine (L) was incubated with the 10DM24 deoxyribozyme (E) and the cofactor RΔΔ in the ratio of L:E:RΔΔ=1:10:30 in the presence of 1 mM pppGpG and 40 mM MgCl2 in 100 mM CHES pH 9.0, 150 mM NaCl, and 2 mM KCl at 37° C. The analysis of the ligation reaction was performed as described herein. […] This is consistent with the model that pppGpG and the first two nucleotides of RΔΔ together reconstitute the P4 helix. When the ligation reaction with pppGpG was tested in the presence of RΔ instead of RΔΔ, the ligation product A-GG was formed, but with a 10-fold decrease in kobs (squares in FIG. 11). Because RΔ provides an extraneous G nucleotide when combined with pppGpG (see legend of FIG. 11), some disruption in activity is perhaps anticipated. […] This is consistent with the observation that GTP was also not a substrate for the 10DM24-C44T mutant deoxyribozyme.
The ligation reaction of pppGpG was also performed using a variety of pppGpG concentrations with the parent 10DM24 deoxyribozyme in the presence of RΔΔ and 40 mM MgCl2. In FIG. 12, the kobs values are plotted versus [pppGpG] and fit to kobs=kmax·[pppGpG]/(Kd,app+[pppGpG]). The Kd,app for pppGpG was >1 mM.

The mark [4] stands for this setting: enhanced incubation conditions: 10 mM NTP, 150 mM MgCl2, pH 9.0, 37° C.
The mark [5] stands for this setting: standard incubation conditions: 1 mM NTP, 40 mM MgCl2, pH 9.0, 37° C., RΔ, ATP series.
Where [6] appears, read: enhanced incubation conditions: 10 mM NTP, 150 mM MgCl2, 100 mM CHES pH 9.0, 37° C.
Where [7] appears, read: standard incubation conditions: 1 mM NTP, 40 mM MgCl2, 100 mM CHES pH 9.0, 150 mM NaCl, 2 mM KCl, 37° C., RΔ.
The mark [8] stands for this setting: standard conditions except with 50 mM CHES.

Some results are limits rather than exact numbers.

Consider `Nc1nc(N)c2ncn(C3OC(COP(=O)(O)OP(=O)(O)OP(=O)(O)O)C(O)C3O)c2n1` (stereo not shown) [DTP, 2,6-diaminopurine ribonucleoside triphosphate], for which the “kobs,enh/kobs,std” value in assay [1] (ATP series) was 8. Moreover, the “ligation yield %, 3 h” value in assay [1] (enhanced incubation conditions) is 90%. The kobs amounted to 0.027 min⁻¹ in assay [1] (setting [4]) and 0.0032 min⁻¹ in assay [1] (setting [5]). The “krel = kobs,NTP*/kobs,NTP” value in assay [1] (enhanced incubation conditions) is 2.1; in assay [1] (standard incubation conditions), 4.0. The “ligation yield %, 5 h” value in assay [1] (standard incubation conditions) is 68%.
Take `Nc1nc2c(ncn2COCCOP(=O)(O)OP(=O)(O)OP(=O)(O)O)c(=O)[nH]1` [G^acv-TP, acyclovir triphosphate]: in the assay with 10DM24 deoxyribozyme [2], the “kobs diminished relative to GTP” value is approximately 300 fold and the “kobs,enh/kobs,std” value is given as more than 7. In the assay with 10DM24 deoxyribozyme [2] (enhanced incubation conditions), the “ligation yield %, 3 h” value came out at 14% and the “krel = kobs,NTP*/kobs,NTP” value is reported as 0.003. The kobs in the assay with 10DM24 deoxyribozyme [2] (setting [6]) was determined as 0.0007 min⁻¹. Further, in the assay with 10DM24 deoxyribozyme [2] (standard incubation conditions), the “ligation yield %, 5 h” value was less than 1% and the “krel = kobs,NTP*/kobs,NTP” value is less than 0.0003. Moreover, the kobs with 10DM24 deoxyribozyme [2] (setting [7]) is less than 0.0001 min⁻¹.
Turning to `O=P(O)(O)OP(=O)(O)OP(=O)(O)OC[C@H]1O[C@@H](n2cnc3c(O)ncnc32)[C@H](O)[C@@H]1O` [ITP, inosine triphosphate], the “kobs,enh/kobs,std” value in the assay with 10DM24 deoxyribozyme [2] stood at 21. For the same compound, in the assay with 10DM24 deoxyribozyme [2] (enhanced incubation conditions), the “ligation yield %, 3 h” value was 84% and the “krel = kobs,NTP*/kobs,NTP” value is on record as 0.05. Moreover, the kobs in the assay on 10DM24 deoxyribozyme [2] (setting [6]) worked out at 0.014 min⁻¹. Besides, in the assay on 10DM24 deoxyribozyme [2] (standard incubation conditions), the “ligation yield %, 5 h” value was 25% and the “krel = kobs,NTP*/kobs,NTP” value is 0.02. Besides, the kobs with 10DM24 deoxyribozyme [2] (setting [7]) was found to be 0.0007 min⁻¹.
Take `Nc1ncnc2c1ncn2[C@@H]1O[C@H](COP(=O)(O)OP(=O)(O)OP(=O)(O)O)[C@@H](O)[C@@H]1O` [ara-ATP, arabino-ATP]: the “kobs,enh/kobs,std” value in assay [1] (ATP series) is reported as 13. Besides, in assay [1] (enhanced incubation conditions), the “ligation yield %, 3 h” value stood at 44% and the “krel = kobs,NTP*/kobs,NTP” value is recorded as 0.41. In addition, in assay [1] (setting [4]), the kobs was 0.005 min⁻¹. For the same compound, in assay [1] (standard incubation conditions), the “ligation yield %, 5 h” value is 13% and the “krel = kobs,NTP*/kobs,NTP” value is listed as 0.50. The kobs in assay [1] (setting [5]) was 0.0004 min⁻¹.
Consider `Nc1ncc2ncn([C@H]3C[C@H](O)[C@@H](COP(=O)(O)OP(=O)(O)OP(=O)(O)O)O3)c2n1` [d2AP-TP], for which the “kobs,enh/kobs,std” value in assay [1] (ATP series) was more than 8. For the same compound, the “ligation yield %, 3 h” value in assay [1] (enhanced incubation conditions) came to 17%. Besides, the kobs in assay [1] (setting [4]) was 0.0008 min⁻¹; in assay [1] (standard conditions with 5′-OH-RΔ), <0.0001^[c] min^−1. Moreover, the “krel = kobs,NTP*/kobs,NTP” value in assay [1] (enhanced incubation conditions) was 0.06; in assay [1] (standard incubation conditions), less than 0.1; in the assay on 10DM24 deoxyribozyme [2] (enhanced incubation conditions), 0.003; in the assay with 10DM24 deoxyribozyme [2] (standard incubation conditions), less than 0.0003. The “ligation yield %, 5 h” value in assay [1] (standard incubation conditions) was less than 1%.
Regarding `Nc1ncnc2c1ncn2[C@H]1C[C@H](O)[C@@H](COP(=O)(O)OP(=O)(O)OP(=O)(O)O)O1` [dATP], the “kobs,enh/kobs,std” value in assay [1] (ATP series) worked out at 19. Also, in assay [1] (enhanced incubation conditions), the “ligation yield %, 3 h” value was found to be 65%. Also, the kobs in assay [1] (setting [4]) is 0.007 min⁻¹; in assay [1] (setting [5]) it was 0.0004 min⁻¹. Besides, the results for the “krel = kobs,NTP*/kobs,NTP” value in assay [1] (enhanced incubation conditions) and in assay [1] (standard incubation conditions) were 0.56 and 0.50, respectively. Further, the “ligation yield %, 5 h” value in assay [1] (standard incubation conditions) came out at 17%.
As for `Nc1nc2c(ncn2[C@H]2C[C@H](O)[C@@H](COP(=O)(O)OP(=O)(O)OP(=O)(O)O)O2)c(=O)[nH]1` [dGTP, 2′-deoxyGTP], the “kobs,enh/kobs,std” value in the assay with 10DM24 deoxyribozyme [2] was determined as 4. Further, in the assay on 10DM24 deoxyribozyme [2] (enhanced incubation conditions), the “ligation yield %, 3 h” value turned out to be 90% and the “krel = kobs,NTP*/kobs,NTP” value was determined as 0.31. Further, in the assay on 10DM24 deoxyribozyme [2] (setting [6]), the kobs came out at 0.081 min⁻¹. Further, in the assay with 10DM24 deoxyribozyme [2] (standard incubation conditions), the “ligation yield %, 5 h” value came to 88% and the “krel = kobs,NTP*/kobs,NTP” value is recorded as 0.60. In the assay on 10DM24 deoxyribozyme [2] (setting [7]), the kobs was 0.020 min⁻¹. For the same compound, the reaction products formed result in the assay with 10DM24 deoxyribozyme [3] is reported as “only the single-nucleotide addition product”.
Turning to `Nc1ncnc2c1ncn2[C@H]1CC[C@@H](COP(=O)(O)OP(=O)(O)OP(=O)(O)O)O1` [ddATP], in assay [1] (standard incubation conditions), the “ligation yield %, 5 h” value was 25% and the “krel = kobs,NTP*/kobs,NTP” value is 0.87. Besides, the kobs in assay [1] (setting [5]) was 0.0007 min⁻¹.
Consider `Nc1nc2c(ncn2[C@H]2CC[C@@H](COP(=O)(O)OP(=O)(O)OP(=O)(O)O)O2)c(=O)[nH]1` [ddGTP, 2′,3′-dideoxyGTP], for which, in the assay on 10DM24 deoxyribozyme [2] (setting [8]), the kobs turned out to be 0.013 min⁻¹; the “ligation yield %, 5 h” value amounted to 85%; the “krel = kobs,NTP*/kobs,NTP” value is 0.38.
With C2-C3-cleaved GTP [G^clv-TP], in the assay on 10DM24 deoxyribozyme [2], the “kobs diminished relative to GTP” value was “approximately 1000 fold” and the “kobs,enh/kobs,std” value is reported as more than 3. In the assay with 10DM24 deoxyribozyme [2] (enhanced incubation conditions), the “ligation yield %, 3 h” value is 6% and the “krel = kobs,NTP*/kobs,NTP” value came to 0.001. Further, the kobs in the assay with 10DM24 deoxyribozyme [2] (setting [6]) turned out to be 0.0003 min⁻¹. Besides, in the assay on 10DM24 deoxyribozyme [2] (standard incubation conditions), the “ligation yield %, 5 h” value is less than 1% and the “krel = kobs,NTP*/kobs,NTP” value is listed as less than 0.0003. Moreover, in the assay on 10DM24 deoxyribozyme [2] (setting [7]), the kobs is less than 0.0001 min⁻¹.

Source of the values: patent US20080207885A1, “Method for site-specific labeling of RNA using a deoxyribozyme” (priority 2007, published 2008).
